In patent publication US12077503B2, “Substituted cyclic amides and their use as herbicides” (FMC CORPORATION, priority 2015, dated 2024):

Legend:
Assay type in all cases: in vivo
Kochia (Kochia scoparia) [1] = test: Test A preemergence; details: Bassia scoparia, pre-emergence, 240 h, 0 to 100 scale where 0 is no effect and 100 is complete control, read-out: Kochia plant response rating
In short: (§1)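 Preemergence directed soil spray on seeded pots, or postemergence application to plants 2–10 cm, one- to two-leaf. Solvent mixture non-phytotoxic, with surfactant. Scored ~10 d later, visually, 0–100 vs untreated.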

[2] = test system: barnyardgrass (Echinochloa crus-galli); test: Test A preemergence; details: Echinochloa crus-galli, pre-emergence, 240 h, 0 to 100 scale where 0 is no effect and 100 is complete control, read-out: Barnyardgrass plant response rating
In short: as §1

[3] = test system: giant foxtail (Setaria faberii); test: Test A preemergence; details: Setaria faberi, pre-emergence, 240 h, 0 to 100 scale where 0 is no effect and 100 is complete control, read-out: Foxtail, Giant plant response rating
In short: as §1

[4] = test system: pigweed (Amaranthus retroflexus); test: Test A preemergence; details: Amaranthus retroflexus, pre-emergence, 240 h, 0 to 100 scale where 0 is no effect and 100 is complete control, read-out: Pigweed plant response rating
[5] = test system: ragweed (common ragweed, Ambrosia elatior); test: Test A preemergence; details: Ambrosia artemisiifolia, pre-emergence, 240 h, 0 to 100 scale where 0 is no effect and 100 is complete control, read-out: Ragweed plant response rating
In short: as §1

[6] = test system: ryegrass, Italian (Italian ryegrass, Lolium multiflorum); test: Test A preemergence; details: Lolium multiflorum, pre-emergence, 240 h, 0 to 100 scale where 0 is no effect and 100 is complete control, read-out: Ryegrass, Italian plant response rating
In short: as §1

[7] = test system: Galium (catchweed bedstraw, Galium aparine); test: Test A postemergence; details: Galium, post-emergence, 240 h, read-out: Galium plant response rating (0 to 100 scale)
In short: as §1

Kochia (Kochia scoparia) [8] = test: Test A postemergence; details: Bassia scoparia, post-emergence, 240 h, read-out: Kochia plant response rating (0 to 100 scale)
In short: as §1

[9] = test system: barnyardgrass (Echinochloa crus-galli); test: Test A postemergence; details: Echinochloa crus-galli, post-emergence, 240 h, read-out: Barnyardgrass plant response rating (0 to 100 scale)
In short: as §1

[10] = test system: blackgrass (Alopecurus myosuroides); test: Test A postemergence; details: Alopecurus myosuroides, post-emergence, 240 h, read-out: Blackgrass plant response rating (0 to 100 scale)
In short: as §1

corn (Zea mays) = test: Test A postemergence; details: Zea mays, post-emergence, 240 h, read-out: Corn plant response rating (0 to 100 scale)
In short: as §1

[11] = test system: giant foxtail (Setaria faberii); test: Test A postemergence; details: Setaria faberi, post-emergence, 240 h, read-out: Foxtail, Giant plant response rating (0 to 100 scale)
In short: as §1

[12] = test system: pigweed (Amaranthus retroflexus); test: Test A postemergence; details: Amaranthus retroflexus, post-emergence, 240 h, read-out: Pigweed plant response rating (0 to 100 scale)
In short: as §1

[13] = test system: ragweed (common ragweed, Ambrosia elatior); test: Test A postemergence; details: Ambrosia artemisiifolia, post-emergence, 240 h, read-out: Ragweed plant response rating (0 to 100 scale)
In short: as §1

[14] = test system: ryegrass, Italian (Italian ryegrass, Lolium multiflorum); test: Test A postemergence; details: Lolium multiflorum, post-emergence, 240 h, read-out: Ryegrass, Italian plant response rating (0 to 100 scale)
In short: as §1

[15] = test system: wheat (Triticum aestivum); test: Test A postemergence; details: Triticum aestivum, post-emergence, 240 h, read-out: Wheat plant response rating (0 to 100 scale)
In short: as §1

[16] = test system: barnyardgrass (Echinochloa crus-galli); test: Test B flooded paddy test; details: Echinochloa crus-galli, 250 g ai/ha, Flood; 0 to 100 scale where 0 is no effect and 100 is complete control; read-out: Barnyardgrass plant response rating
In short: (§2)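 Greenhouse paddy pots with 2-leaf stage plants received compound by direct addition to floodwater 3 cm deep, kept at that level. Scored visually at 13–15 d versus controls (0 no effect; 100 complete control).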

[17] = test system: ducksalad (Heteranthera limosa); test: Test B flooded paddy test; details: Heteranthera limosa, 250 g ai/ha, Flood; 0 to 100 scale where 0 is no effect and 100 is complete control; read-out: Ducksalad plant response rating
In short: as §2

rice (Oryra sativa) = test: Test B flooded paddy test; details: Oryza sativa, 250 g ai/ha, Flood; 0 to 100 scale where 0 is no effect and 100 is complete control; read-out: Rice plant response rating
In short: as §2

[18] = test system: sedge, umbrella (small-flower umbrella sedge, Cyperus difformis); test: Test B flooded paddy test; details: Cyperus difformis, 250 g ai/ha, Flood; 0 to 100 scale where 0 is no effect and 100 is complete control; read-out: Sedge, Umbrella plant response rating
In short: as §2

[19] = 125 g ai/ha, preemergence, visual injury rating, approximately 10 d
[20] = 125 g ai/ha, postemergence, visual injury vs untreated controls after approx. 10 d, 0 = no effect, 100 = complete control
[21] = Postemergence, 31 g ai/ha, 0 is no effect, 100 is complete control

`CN1C[C@H](c2ccc(C#N)c(F)c2)[C@@H](C(=O)Nc2ccccc2F)C1=O` [Compound 1190] gave a pest or weed control at 31 g/ha (Kochia (Kochia scoparia) [1]; 31 g ai/ha, Preemergence) of 0%, a pest or weed control at 125 g/ha (Kochia (Kochia scoparia) [1]; [19]) of 0% and a pest or weed control at 31 g/ha ([2]; 31 g ai/ha, Preemergence) of 50%. The pest or weed control at 125 g/ha [2, 19] was 90%, the pest or weed control at 31 g/ha ([3]; 31 g ai/ha, Preemergence) was 60% and the pest or weed control at 125 g/ha [3, 19] was 90%. It also gave a pest or weed control at 31 g/ha ([4]; 31 g ai/ha, Preemergence) of 0%, a pest or weed control at 125 g/ha [4, 19] of 0% and a pest or weed control at 31 g/ha ([5]; 31 g ai/ha, Preemergence) of 0%. The pest or weed control at 125 g/ha [5, 19] was 0%, the pest or weed control at 31 g/ha ([6]; 31 g ai/ha, Preemergence) was 0% and the pest or weed control at 125 g/ha [6, 19] was 0%. It also gave a pest or weed control at 125 g/ha [7, 20] of 20%, a pest or weed control at 31 g/ha [7, 21] of 0% and a pest or weed control at 125 g/ha (Kochia (Kochia scoparia) [8]; [20]) of 0%. For the same compound, the pest or weed control at 31 g/ha (Kochia (Kochia scoparia) [8]; [21]) was 0%, the pest or weed control at 125 g/ha [9, 20] was 60% and the pest or weed control at 31 g/ha [9, 21] was 0%. The pest or weed control at 125 g/ha [10, 20] was 0%, the pest or weed control at 31 g/ha [10, 21] was 0% and the plant injury at 125 g/ha (corn (Zea mays); [20]) was 0%. For the same compound, the plant injury at 31 g/ha (corn (Zea mays); [21]) was 0%, the pest or weed control at 125 g/ha [11, 20] was 20% and the pest or weed control at 31 g/ha [11, 21] was 0%. The pest or weed control at 125 g/ha [12, 20] was 0%, the pest or weed control at 31 g/ha [12, 21] was 0% and the pest or weed control at 125 g/ha [13, 20] was 0%. For the same compound, the pest or weed control at 31 g/ha [13, 21] was 0%, the pest or weed control at 125 g/ha [14, 20] was 0% and the pest or weed control at 31 g/ha [14, 21] was 0%. The plant injury at 125 g/ha [15, 20] was 0%, the plant injury at 31 g/ha [15, 21] was 0% and the pest or weed control at 250 g/ha [16] was 55%. It also gave a pest or weed control at 250 g/ha [17] of 90%, a pest or weed control at 250 g/ha (rice (Oryra sativa)) of 40% and a pest or weed control at 250 g/ha [18] of 0%.
